In ChEMBL document CHEMBL4334516, “Kinase Chemodiversity from the Arctic: The Breitfussins” (J Med Chem, 2019):

Legend:
[1] = molecular target: T1, Mitogen-activated protein kinase kinase kinase 7 (Homo sapiens, UniProt O43318); experiment: Inhibition of TAK1 (unknown origin) by [33P]-ATP filter binding kinase assay
T1 sequence (O43318 whole entry): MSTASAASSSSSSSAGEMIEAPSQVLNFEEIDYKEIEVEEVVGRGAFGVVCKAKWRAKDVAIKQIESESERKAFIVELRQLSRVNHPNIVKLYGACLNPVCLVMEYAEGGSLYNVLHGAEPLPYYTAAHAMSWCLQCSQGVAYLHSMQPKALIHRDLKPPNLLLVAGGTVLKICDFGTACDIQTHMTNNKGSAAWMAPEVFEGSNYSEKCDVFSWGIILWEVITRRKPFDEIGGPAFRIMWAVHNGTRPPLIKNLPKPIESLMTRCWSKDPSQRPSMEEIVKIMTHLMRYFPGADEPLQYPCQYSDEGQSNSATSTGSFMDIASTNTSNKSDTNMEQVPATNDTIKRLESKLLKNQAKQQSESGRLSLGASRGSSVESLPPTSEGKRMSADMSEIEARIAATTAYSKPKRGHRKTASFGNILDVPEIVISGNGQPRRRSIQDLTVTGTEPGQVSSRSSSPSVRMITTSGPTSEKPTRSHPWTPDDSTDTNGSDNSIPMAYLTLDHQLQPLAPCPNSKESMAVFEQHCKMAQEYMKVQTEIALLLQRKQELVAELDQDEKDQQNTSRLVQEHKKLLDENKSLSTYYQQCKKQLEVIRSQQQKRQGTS

MRC5 = experiment: Cytotoxicity in human MRC5 cells assessed as reduction in cell viability incubated for 72 hrs by MTS assay; type: cell-based; conditions: MRC5, 72 h
MDA-MB-468 = experiment: Cytotoxicity in human MDA-MB-468 cells assessed as reduction in cell viability incubated for 72 hrs by MTS assay; type: functional, cell-based; conditions: MDA-MB-468, 72 h
[2] = molecular target: Serine/threonine-protein kinase pim-3 (Homo sapiens, UniProt Q86V86); experiment: Inhibition of PIM3 (unknown origin) by [33P]-ATP filter binding kinase assay
SK-BR-3 = experiment: Cytotoxicity in human SK-BR-3 cells assessed as reduction in cell viability incubated for 72 hrs by MTS assay; type: functional, cell-based; conditions: SK-BR-3, 72 h
[3] = molecular target: Serine/threonine-protein kinase pim-1 (Homo sapiens, UniProt P11309); experiment: Inhibition of PIM1 (unknown origin) by [33P]-ATP filter binding kinase assay
Chain of Serine/threonine-protein kinase pim-1 (P11309 whole entry): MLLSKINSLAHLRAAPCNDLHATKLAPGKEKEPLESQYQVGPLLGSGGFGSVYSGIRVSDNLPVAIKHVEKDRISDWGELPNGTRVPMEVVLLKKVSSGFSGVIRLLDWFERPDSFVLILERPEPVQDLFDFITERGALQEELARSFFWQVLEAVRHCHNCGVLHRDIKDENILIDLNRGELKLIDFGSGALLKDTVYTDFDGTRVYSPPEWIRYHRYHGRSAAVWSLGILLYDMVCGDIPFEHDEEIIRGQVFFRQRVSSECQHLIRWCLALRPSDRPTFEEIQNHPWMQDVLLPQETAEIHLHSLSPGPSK

[4] = molecular target: T2, Mitogen-activated protein kinase 15 (Homo sapiens, UniProt Q8TD08); experiment: Inhibition of ERK8 (unknown origin) by [33P]-ATP filter binding kinase assay
T2 sequence (Q8TD08 whole entry): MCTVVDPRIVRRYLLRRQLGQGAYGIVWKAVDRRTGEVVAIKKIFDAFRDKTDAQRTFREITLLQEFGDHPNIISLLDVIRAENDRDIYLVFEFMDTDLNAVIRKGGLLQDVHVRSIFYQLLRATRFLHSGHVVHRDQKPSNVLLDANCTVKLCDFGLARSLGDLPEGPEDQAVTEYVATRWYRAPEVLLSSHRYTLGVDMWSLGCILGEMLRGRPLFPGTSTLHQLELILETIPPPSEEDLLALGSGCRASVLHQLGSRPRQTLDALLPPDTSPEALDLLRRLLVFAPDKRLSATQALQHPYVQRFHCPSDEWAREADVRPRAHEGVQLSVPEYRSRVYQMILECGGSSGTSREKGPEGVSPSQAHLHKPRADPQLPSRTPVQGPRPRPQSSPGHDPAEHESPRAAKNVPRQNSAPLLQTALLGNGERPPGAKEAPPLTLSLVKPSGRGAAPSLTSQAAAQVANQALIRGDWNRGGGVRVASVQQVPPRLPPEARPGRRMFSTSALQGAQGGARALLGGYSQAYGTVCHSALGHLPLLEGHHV

[5] = molecular target: Mitogen-activated protein kinase kinase kinase 11 (Homo sapiens, UniProt Q16584); experiment: Inhibition of MLK3 (unknown origin) by [33P]-ATP filter binding kinase assay
MOLT-4 = experiment: Cytotoxicity in human MOLT4 cells assessed as reduction in cell viability incubated for 72 hrs by MTS assay; type: functional, cell-based; conditions: MOLT-4, 72 h
[6] = molecular target: Dual specificity tyrosine-phosphorylation-regulated kinase 1A (Homo sapiens, UniProt Q13627); experiment: Inhibition of DYRK1A (unknown origin) by [33P]-ATP filter binding kinase assay
Aurora kinase B = Aurora kinase B (Homo sapiens, UniProt Q96GD4); experiment: Inhibition of Aurora B (unknown origin) by [33P]-ATP filter binding kinase assay
Chain of Aurora kinase B (Q96GD4 whole entry): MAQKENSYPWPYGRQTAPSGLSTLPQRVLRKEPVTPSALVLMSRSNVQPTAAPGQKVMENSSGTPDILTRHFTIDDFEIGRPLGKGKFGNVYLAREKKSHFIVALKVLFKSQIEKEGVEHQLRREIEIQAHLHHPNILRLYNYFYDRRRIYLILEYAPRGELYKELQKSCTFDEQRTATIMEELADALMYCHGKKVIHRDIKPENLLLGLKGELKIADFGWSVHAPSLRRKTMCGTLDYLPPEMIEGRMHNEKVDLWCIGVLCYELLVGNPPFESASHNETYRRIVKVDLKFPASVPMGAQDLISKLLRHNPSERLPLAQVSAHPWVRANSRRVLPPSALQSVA

A2058 = experiment: Cytotoxicity in human A2058 cells assessed as reduction in cell viability incubated for 72 hrs by MTS assay; type: functional, cell-based; conditions: A2058, 72 h
HT-29 = experiment: Cytotoxicity in human HT-29 cells assessed as reduction in cell viability incubated for 72 hrs by MTS assay; type: functional, cell-based; conditions: HT-29, 72 h
[7] = molecular target: Mitogen-activated protein kinase kinase kinase 9 (Homo sapiens, UniProt P80192); experiment: Inhibition of MLK1 (unknown origin) by [33P]-ATP filter binding kinase assay
Chain of Mitogen-activated protein kinase kinase kinase 9 (P80192 whole entry): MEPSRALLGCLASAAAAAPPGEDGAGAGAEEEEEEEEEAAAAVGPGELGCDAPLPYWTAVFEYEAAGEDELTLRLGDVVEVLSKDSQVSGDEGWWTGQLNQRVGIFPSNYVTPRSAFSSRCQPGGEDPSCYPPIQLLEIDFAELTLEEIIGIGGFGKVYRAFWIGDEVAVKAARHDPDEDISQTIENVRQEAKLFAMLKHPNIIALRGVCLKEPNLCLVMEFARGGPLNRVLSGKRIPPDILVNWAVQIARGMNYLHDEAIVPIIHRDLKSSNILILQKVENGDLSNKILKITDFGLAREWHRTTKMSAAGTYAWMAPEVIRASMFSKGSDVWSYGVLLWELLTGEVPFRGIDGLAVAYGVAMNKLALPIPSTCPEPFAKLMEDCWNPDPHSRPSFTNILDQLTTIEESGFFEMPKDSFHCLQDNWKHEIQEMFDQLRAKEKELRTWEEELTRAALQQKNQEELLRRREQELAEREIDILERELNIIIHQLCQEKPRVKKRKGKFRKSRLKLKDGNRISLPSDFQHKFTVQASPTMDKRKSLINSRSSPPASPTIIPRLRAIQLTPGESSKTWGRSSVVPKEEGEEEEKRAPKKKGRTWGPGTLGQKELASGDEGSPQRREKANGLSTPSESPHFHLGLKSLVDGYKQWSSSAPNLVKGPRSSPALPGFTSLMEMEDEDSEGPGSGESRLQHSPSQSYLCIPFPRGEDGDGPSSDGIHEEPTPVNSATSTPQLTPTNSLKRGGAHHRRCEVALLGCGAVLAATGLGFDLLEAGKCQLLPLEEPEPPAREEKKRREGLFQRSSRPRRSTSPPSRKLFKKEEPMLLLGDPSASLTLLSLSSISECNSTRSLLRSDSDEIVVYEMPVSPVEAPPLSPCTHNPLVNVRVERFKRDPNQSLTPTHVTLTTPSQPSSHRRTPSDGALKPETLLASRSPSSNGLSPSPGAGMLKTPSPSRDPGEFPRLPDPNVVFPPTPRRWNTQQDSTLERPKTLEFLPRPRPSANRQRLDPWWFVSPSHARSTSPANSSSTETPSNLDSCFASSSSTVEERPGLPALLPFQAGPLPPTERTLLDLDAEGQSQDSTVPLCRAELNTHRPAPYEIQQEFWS

[8] = molecular target: T3, Mitogen-activated protein kinase kinase kinase kinase 2 (Homo sapiens, UniProt Q12851); experiment: Inhibition of GCK (unknown origin) by [33P]-ATP filter binding kinase assay
T3 sequence (Q12851 whole entry): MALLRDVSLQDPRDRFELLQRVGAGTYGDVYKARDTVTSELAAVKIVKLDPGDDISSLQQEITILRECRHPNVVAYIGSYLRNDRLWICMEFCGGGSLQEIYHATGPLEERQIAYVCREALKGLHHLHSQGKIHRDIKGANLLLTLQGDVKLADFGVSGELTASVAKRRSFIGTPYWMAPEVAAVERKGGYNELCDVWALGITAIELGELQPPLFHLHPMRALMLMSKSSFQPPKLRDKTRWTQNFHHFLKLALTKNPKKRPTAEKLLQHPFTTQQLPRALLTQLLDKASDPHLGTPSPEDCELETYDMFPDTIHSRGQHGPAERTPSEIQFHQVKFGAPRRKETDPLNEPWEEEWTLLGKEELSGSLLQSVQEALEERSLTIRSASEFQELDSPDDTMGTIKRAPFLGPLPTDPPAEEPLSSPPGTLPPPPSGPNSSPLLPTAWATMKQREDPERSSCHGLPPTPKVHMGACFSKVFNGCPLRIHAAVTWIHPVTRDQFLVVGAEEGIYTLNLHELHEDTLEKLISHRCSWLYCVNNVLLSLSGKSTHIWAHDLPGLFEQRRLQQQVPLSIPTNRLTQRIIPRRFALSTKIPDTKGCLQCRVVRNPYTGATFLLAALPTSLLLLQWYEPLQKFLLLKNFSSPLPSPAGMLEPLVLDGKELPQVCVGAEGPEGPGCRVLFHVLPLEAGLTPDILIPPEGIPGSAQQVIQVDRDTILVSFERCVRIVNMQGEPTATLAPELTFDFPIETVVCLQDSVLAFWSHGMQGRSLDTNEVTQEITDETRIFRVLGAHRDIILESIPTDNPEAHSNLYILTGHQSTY

Aurora kinase A = molecular target: T4, Aurora kinase A (Homo sapiens, UniProt O14965); experiment: Inhibition of Aurora A (unknown origin) by [33P]-ATP filter binding kinase assay
T4 sequence (O14965 whole entry): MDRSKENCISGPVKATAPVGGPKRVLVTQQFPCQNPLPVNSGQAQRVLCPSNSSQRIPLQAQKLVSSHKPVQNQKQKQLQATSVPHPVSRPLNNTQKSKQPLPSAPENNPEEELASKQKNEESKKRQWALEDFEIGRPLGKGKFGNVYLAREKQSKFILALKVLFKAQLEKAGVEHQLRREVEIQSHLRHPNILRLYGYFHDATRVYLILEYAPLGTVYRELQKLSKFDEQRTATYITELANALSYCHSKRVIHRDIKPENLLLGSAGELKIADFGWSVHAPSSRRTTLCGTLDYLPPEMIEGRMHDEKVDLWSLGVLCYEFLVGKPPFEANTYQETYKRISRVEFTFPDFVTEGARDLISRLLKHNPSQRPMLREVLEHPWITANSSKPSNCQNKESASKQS

MCF7 = experiment: Cytotoxicity in human MCF7 cells assessed as reduction in cell viability incubated for 72 hrs by MTS assay; type: functional, cell-based; conditions: MCF7, 72 h
MV4-11 = experiment: Cytotoxicity in human MV4-11 cells assessed as reduction in cell viability incubated for 72 hrs by MTS assay; type: functional, cell-based; conditions: MV4-11, 72 h
[9] = molecular target: Receptor-interacting serine/threonine-protein kinase 2 (Homo sapiens, UniProt O43353); experiment: Inhibition of RIPK2 (unknown origin) by [33P]-ATP filter binding kinase assay
Chain of Receptor-interacting serine/threonine-protein kinase 2 (O43353 whole entry): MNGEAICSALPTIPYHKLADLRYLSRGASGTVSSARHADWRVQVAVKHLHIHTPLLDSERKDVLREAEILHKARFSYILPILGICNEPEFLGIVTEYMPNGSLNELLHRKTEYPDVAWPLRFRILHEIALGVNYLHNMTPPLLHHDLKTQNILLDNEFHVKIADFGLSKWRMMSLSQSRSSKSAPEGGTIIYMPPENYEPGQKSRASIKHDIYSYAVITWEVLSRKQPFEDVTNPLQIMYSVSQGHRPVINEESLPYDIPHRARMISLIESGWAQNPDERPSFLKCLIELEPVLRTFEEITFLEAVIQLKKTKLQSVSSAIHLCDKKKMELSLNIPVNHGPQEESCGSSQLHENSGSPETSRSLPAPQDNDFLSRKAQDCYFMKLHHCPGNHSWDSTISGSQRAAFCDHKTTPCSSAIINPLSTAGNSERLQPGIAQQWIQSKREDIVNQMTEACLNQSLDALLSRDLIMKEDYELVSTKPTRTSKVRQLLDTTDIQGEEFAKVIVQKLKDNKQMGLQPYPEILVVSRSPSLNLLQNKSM

[10] = molecular target: Serine/threonine-protein kinase pim-2 (Homo sapiens, UniProt Q9P1W9); experiment: Inhibition of PIM2 (unknown origin) by [33P]-ATP filter binding kinase assay
Chain of Serine/threonine-protein kinase pim-2 (Q9P1W9 whole entry): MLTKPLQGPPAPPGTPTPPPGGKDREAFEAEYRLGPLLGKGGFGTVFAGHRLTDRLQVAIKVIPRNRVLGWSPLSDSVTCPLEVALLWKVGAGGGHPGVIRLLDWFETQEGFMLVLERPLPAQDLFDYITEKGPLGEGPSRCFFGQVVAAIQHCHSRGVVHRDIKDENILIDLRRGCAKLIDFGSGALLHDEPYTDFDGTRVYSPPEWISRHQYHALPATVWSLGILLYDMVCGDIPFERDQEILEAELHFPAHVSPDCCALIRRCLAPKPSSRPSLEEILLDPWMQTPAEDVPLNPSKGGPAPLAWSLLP

[11] = molecular target: Serine/threonine-protein kinase SIK3 (Homo sapiens, UniProt Q9Y2K2); experiment: Inhibition of SIK3 (unknown origin) by [33P]-ATP filter binding kinase assay
Chain of Serine/threonine-protein kinase SIK3 (Q9Y2K2 whole entry): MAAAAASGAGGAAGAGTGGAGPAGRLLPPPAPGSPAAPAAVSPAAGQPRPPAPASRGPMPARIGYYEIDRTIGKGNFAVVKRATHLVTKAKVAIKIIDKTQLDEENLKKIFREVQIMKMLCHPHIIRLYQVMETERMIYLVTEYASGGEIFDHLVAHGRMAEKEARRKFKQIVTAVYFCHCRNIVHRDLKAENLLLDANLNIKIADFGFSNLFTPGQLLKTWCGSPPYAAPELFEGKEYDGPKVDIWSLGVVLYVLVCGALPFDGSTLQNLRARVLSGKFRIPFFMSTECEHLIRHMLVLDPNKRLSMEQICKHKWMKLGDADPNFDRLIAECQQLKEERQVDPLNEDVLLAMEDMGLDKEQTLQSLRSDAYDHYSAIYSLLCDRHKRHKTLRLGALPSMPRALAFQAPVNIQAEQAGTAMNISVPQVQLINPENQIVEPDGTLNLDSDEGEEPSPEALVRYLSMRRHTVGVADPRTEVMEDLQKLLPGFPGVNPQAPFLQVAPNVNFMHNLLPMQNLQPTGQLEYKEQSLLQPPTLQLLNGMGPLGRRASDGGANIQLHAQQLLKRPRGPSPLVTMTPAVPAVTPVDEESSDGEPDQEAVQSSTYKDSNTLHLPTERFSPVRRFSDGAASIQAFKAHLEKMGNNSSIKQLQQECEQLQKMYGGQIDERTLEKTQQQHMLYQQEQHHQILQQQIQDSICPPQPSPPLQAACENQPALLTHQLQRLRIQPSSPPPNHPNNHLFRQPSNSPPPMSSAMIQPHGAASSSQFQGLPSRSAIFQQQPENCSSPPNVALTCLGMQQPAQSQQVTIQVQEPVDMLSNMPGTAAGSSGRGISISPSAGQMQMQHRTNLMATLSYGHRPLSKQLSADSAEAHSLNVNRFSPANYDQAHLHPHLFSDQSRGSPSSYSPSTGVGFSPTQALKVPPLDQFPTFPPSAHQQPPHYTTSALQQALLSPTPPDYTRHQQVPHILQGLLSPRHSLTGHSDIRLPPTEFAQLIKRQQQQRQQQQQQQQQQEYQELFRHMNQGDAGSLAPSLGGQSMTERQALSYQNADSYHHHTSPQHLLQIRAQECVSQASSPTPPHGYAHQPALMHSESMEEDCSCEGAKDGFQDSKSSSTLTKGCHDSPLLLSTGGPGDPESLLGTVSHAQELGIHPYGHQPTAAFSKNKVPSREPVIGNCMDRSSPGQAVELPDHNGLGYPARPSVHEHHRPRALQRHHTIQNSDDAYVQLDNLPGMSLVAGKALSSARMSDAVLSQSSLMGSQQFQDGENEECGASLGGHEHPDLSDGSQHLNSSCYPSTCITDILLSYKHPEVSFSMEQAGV

[12] = molecular target: Cyclin-dependent kinase 9 (Homo sapiens, UniProt P50750); experiment: Inhibition of CDK9 (unknown origin)
Chain of Cyclin-dependent kinase 9 (P50750 whole entry): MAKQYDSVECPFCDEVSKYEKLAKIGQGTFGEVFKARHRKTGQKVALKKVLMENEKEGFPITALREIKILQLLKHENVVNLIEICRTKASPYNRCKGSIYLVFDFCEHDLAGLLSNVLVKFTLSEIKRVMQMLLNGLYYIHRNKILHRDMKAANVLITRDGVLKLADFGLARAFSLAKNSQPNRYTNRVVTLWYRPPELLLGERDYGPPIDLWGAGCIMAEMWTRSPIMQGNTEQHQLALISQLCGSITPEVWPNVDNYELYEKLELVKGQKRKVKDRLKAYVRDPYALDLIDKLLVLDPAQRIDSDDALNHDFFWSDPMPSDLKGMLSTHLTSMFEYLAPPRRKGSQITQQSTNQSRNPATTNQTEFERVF

| IC50 [1] [µM] | IC50 [2] [µM] | IC50 [3] [µM] | IC50 [5] [µM] | IC50 [6] [µM] | IC50 (Aurora kinase B) [µM] | IC50 [7] [µM] | IC50 [8] [µM] | IC50 (Aurora kinase A) [µM] | IC50 [9] [µM] | IC50 [10] [µM] | SMILES | IC50 (MRC5) [µM] | IC50 (MDA-MB-468) [µM] | IC50 (SK-BR-3) [µM] | IC50 [4] [µM] | IC50 (MOLT-4) [µM] | IC50 (A2058) [µM] | IC50 (HT-29) [µM] | IC50 (MCF7) [µM] | IC50 (MV4-11) [µM] | further results |
| --- | --- | --- | --- | --- | --- | --- | --- | --- | --- | --- | --- | --- | --- | --- | --- | --- | --- | --- | --- | --- | --- |
| 36 | > 10 | 43 | 23 | > 10 | 7.8 | 22 | > 10 | > 10 | > 10 | > 10 | COc1cc(Br)cc2[nH]cc(-c3cnc(-c4cc(Br)c[nH]4)o3)c12 | > 10 | > 10 | > 10 | > 10 | > 10 | > 10 | > 10 | > 10 | > 10 | IC50 [11]: > 10 µM |
| – | – | – | – | – | – | – | – | – | – | – | Cc1cc(=O)c2c(O)cc(O)c([C@@H]3CCN(C)C[C@@H]3O)c2o1 | – | – | – | – | – | – | – | – | – | IC50 [12]: 0.3 µM |
| 18 | > 10 | 18 | 19 | > 10 | 31 | 21 | 40 | > 10 | > 10 | > 10 | COc1cc(Br)cc2[nH]c(I)c(-c3cnc(-c4ccc[nH]4)o3)c12 | > 10 | > 10 | > 10 | > 10 | > 10 | > 10 | > 10 | > 10 | > 10 | IC50 [11]: > 10 µM |
